The source of these data is patent publication US20030114375A1, “Method for treating cystic fibrosis” (The Government of the USA, Dept of Health and Human …, priority 1994, published 2003).

Entries after “also recorded” stand apart in the source; their conditions may differ. Read-outs that look alike come from different tables or passages of the source.

One data set relates to CFPAC cells. Nature of the data set: [36Cl]- efflux from CFPAC cells. Conditions: for Efflux rate as compared to control (FIGS. 9-12): read from the graphs; for % control: chloride efflux at maximum impact relative to control: at Conc. max.; for % control: chloride efflux at minimum detection relative to control: at threshold concentration.
Data set [1] concerns bovine chromaffin granules. Nature of the data set: Chromaffin granule aggregation assay. The format is biochemical. The note with it: for Aggregation of chromaffin granules: 1 mM CaCl2, 20 μg/ml polypeptide. The procedure:
Chromaffin granule aggregation assay: Adrenal glands were obtained from a local abattoir and transported to the laboratory on ice within 2 hours of slaughter. Tissue was processed as described in Brocklehurst et al. in Polypeptide Hormones: A Practical Approach (Oxford Univ. Press, K. Siddle and J. Hutton, eds., 1990) at pp. 237-255. Chromaffin granules were purified on a step gradient of metrizamide using standard procedures. After resuspension, the granule aggregation assay was performed as described (Brocklehurst et al., supra), and the synexin activity was assessed from the initial rate of optical density increase at 540 nm. Briefly, the assay was carried out at room temperature in a 1 ml quartz cuvette containing the chromaffin granule suspension in 0.3 mol/l sucrose, 40 mmol/l histidine buffer, pH 6.0, synexin and variable amounts of calcium chloride.

In another data set the target is T1, A2a-adenosine receptor (Rattus norvegicus, UniProt P30543).
T1 construct: Rat cerebral cortical membranes and striatal membranes were prepared; from tissue; host or cells: rat striatal membranes
The experiment in a line: Inhibition of [3H]CGS 21680 binding to A2a receptors. The note with it: for Ki: rat striatal membranes, 5 nM [3H]CGS 21680, read-out: Ki, μM(A2). The procedure: (§1) Solid samples of the adenosine derivatives were dissolved in dimethyl sulfoxide (DMSO) and stored in the art at. −20° C. The stock solutions were diluted with DMSO to a concentration of ≦0.1 mM prior to addition to the aqueous medium. The final concentration of DMSO in the assay medium was generally 2%.
Membranes (^˜80 μg protein per tube) were incubated for one hour at 25° C. in a total volume of 0.5 ml of a buffer solution consisting of […] tris hydrochloride and 10 mM MgCl2 at pH 7.4. Test drugs were dissolved in DMSO and added in 10 μl aliquots, resulting in a final DMSO concentration of 2%. Non-specific binding was defined using 20 μM 2-chloroadenosine. Filtration was carried out using a Brandel Cell Harvester, as above, using the tris.HCl/MgCl2 buffer recited hereinabove as the washing buffer.
(§2) At least six different concentrations spanning three orders of magnitude, adjusted appropriately for the IC50 of each compound, were used.

For a further data set, the target named is T2, A1-adenosine receptor (Rattus norvegicus, UniProt P25099).
T2 construct: Rat cerebral cortical membranes and striatal membranes were prepared; from tissue; host or cells: rat cerebral cortex membranes
T2 sequence (P25099 1-326): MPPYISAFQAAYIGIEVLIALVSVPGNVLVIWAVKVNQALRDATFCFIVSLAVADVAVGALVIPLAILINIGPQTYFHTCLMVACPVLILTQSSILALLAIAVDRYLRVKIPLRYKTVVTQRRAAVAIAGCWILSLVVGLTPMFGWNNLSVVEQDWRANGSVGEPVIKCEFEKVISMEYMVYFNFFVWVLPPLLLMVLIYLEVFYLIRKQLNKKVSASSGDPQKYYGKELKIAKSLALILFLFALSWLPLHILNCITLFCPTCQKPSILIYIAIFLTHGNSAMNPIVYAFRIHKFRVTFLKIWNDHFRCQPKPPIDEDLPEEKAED
The experiment in a line: Inhibition of [3H]N6-phenylisopropyladenosine binding to A1 receptors. The procedure:
as §1
Inhibition of binding of 1 nM [^3H]N^6-phenylisopropyladenosine (Dupont NEN, Boston, Mass.) to A1 receptors in rat cerebral cortex membranes was measured as described in Schwabe et al., Naunyn-Schmiedeberg's Arch. […] Membranes (^˜100 μg protein per tube) were incubated for 1.5 hours at 37° C. in a total volume of 0.5 ml of 50 mM tris hydrochloride at pH 7.4. Test drugs were dissolved in DMSO and added in 10 μl aliquots, resulting in a final DMSO concentration of 2%. Bound and free radioligand were separated by addition of 3 ml of a buffer containing 50 mM tris hydrochloride, at pH 7.4 at 5° C., followed by vacuum filtration using a Brandel Cell Harvester (Brandel, Gaithersburg, Md.) and a Whatman GF/B glass fiber filter with additional washes totaling 9 ml of buffer. Non-specific binding was determined with 10 μM 2-chloroadenosine.
as §2

The mark [2] stands for this setting: rat cerebral cortex membranes, 1 nM [3H]PIA, read-out: Ki, μM(A1).

T1 sequence (P30543 whole entry): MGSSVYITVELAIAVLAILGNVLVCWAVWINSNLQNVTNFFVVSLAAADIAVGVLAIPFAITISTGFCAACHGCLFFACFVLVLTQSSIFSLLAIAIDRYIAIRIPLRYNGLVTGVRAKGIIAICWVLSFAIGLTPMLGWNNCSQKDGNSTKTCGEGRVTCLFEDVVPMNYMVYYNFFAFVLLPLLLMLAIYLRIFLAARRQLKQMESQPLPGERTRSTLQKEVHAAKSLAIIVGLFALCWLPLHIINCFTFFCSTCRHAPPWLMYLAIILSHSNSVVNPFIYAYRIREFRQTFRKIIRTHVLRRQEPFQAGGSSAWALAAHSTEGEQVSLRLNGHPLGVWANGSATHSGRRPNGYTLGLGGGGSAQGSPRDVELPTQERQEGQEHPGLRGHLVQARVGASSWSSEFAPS

On to `CCCn1c(=O)c2[nH]c(C3CCCCC3)nc2n(CCC)c1=O` [Compound 18], for which the “Conc. max. (nM): concentration at maximum impact upon chloride efflux” value (“Conc. max. (nM): concentration” for short) in the data set with CFPAC cells was >>10^4 nM.
For the compound “Io: CFTR polypeptide, positions 500 to 530, NH2-GTIKENEEFGVSYDEYRYRSVIKACQLEEDIS-COOH”, in data set [1], the “Aggregation of chromaffin granules” value was “inactive”.
Take `Cn1c(=O)c2c(nc(C3CCCCC3)n2C)n(C)c1=O` [Compound 14, 8-cyclohexyl caffeine]: in the data set on CFPAC cells, the “Chloride efflux stimulation (summary words)” value (“Chloride efflux stimulation” for short) is “stimulate chloride efflux at μM or lesser concentrations; also recorded: substantial efflux activity at low concentration ranges” and the “thresh (nM): minimum concentration required to detect an effect upon chloride efflux” value (shortened to “thresh (nM)”) was 3 nM.
Consider `CCCn1c(=O)c2[nH]c(-c3ccc(OCC(=O)NCCN)cc3)nc2n(CCC)c1=O` [Compound 26, reference compound], for which the “Conc. max. (nM): concentration” value with CFPAC cells is on record as >>10^4 nM.
Regarding `Cn1c(=O)c2[nH]c(CC3CCCCC3)nc2n(C)c1=O` [Compound 21], the melting point – broadly, the temperature of the solid-liquid transition – fell in the range of 236 to 238 °C. The “Conc. max. (nM): concentration” value in the data set on CFPAC cells was >>10^4 nM. The Ki (commonly the equilibrium dissociation constant of an inhibitor or competing ligand from its target) at A2a-adenosine receptor is 5.47 ± 0.86 µM. Besides, at A1-adenosine receptor (setting [2]), the Ki was 0.61 ± 0.076 µM.
Take `Cn1c(=O)c2c(nc(C3CCCCC3)n2CC2CC2)n(C)c1=O` [Compound 16]: the “Conc. max. (nM): concentration” value in the data set with CFPAC cells is recorded as >>10^4 nM. Further, the Ki on A2a-adenosine receptor was 4.53 ± 1.37 µM; on A1-adenosine receptor (setting [2]), 8.23 ± 1.62 µM.
The corresponding values for `CCCn1c(=O)c2[nH]c(C3C=CCC3)nc2n(CCC)c1=O` (stereo not drawn) [Compound 11] are >>300 nM, 0.64 ± 0.061 µM and 0.045 µM.
With `Cn1c(=O)c2c(ncn2C)n(C)c1=O` [Compound 2, 1,3,7-trimethylxanthine, reference compound], in the data set on CFPAC cells, the “Conc. max. (nM): concentration” value was 10 nM and the “thresh (nM)” value was determined as 1 nM.
`CCn1c(C2CCCCC2)nc2c1c(=O)n(C)c(=O)n2C` [Compound 15]: in the data set with CFPAC cells, the “Conc. max. (nM): concentration” value is recorded as >>10^4 nM. Also, the figures for the Ki at A2a-adenosine receptor and on A1-adenosine receptor (setting [2]) were 3.23 ± 0.36 µM and 6.66 ± 0.99 µM, respectively.
`CCn1c(C2CCCCC2)nc2c1c(=O)n(C)c(=O)n2C` (hydrate or solvate) [Compound 15] had a melting point above 170 °C.
As for `Cn1c(=O)c2c(nc(CC3CCCCC3)n2C)n(C)c1=O` [Compound 22, 8-cyclohexylmethyl caffeine], the “Conc. max. (nM): concentration” value in the data set with CFPAC cells is >>10^4 nM. Besides, the “Efflux rate as compared to control (FIGS. 9-12)” value in the data set on CFPAC cells amounted to 200%. The Ki came out at 5.46 ± 0.47 µM at A2a-adenosine receptor and 3.71 ± 0.36 µM on A1-adenosine receptor (setting [2]).
As for `CCCn1c(=O)c2c(nc(C3CCCC3)n2C)n(CCC)c1=O` [Compound 6, 1,3-dipropyl-7-methyl-8-cyclopentylxanthine], in the data set with CFPAC cells, the “Chloride efflux stimulation” value is “stimulate chloride efflux at μM or lesser concentrations; also recorded: substantial efflux activity at low concentration ranges”, the “Conc. max. (nM): concentration” value is listed as 1000 nM, the “thresh (nM)” value was found to be 30 nM and the “% control: chloride efflux at maximum impact relative to control” value is 180 ± 40%. Besides, the “% control: chloride efflux at minimum detection relative to control” value with CFPAC cells is 125 ± 30%. In addition, on A2a-adenosine receptor, the “Affinity for A2 receptor” value is “low affinity” and the inhibition constant Ki stood at 11.4 ± 1.4 µM. Besides, the “Affinity for A1 receptor” value at A1-adenosine receptor is reported as “low affinity”. Also, the Ki at A1-adenosine receptor (setting [2]) was 2.3 µM.
On to `CCCn1c(=O)c2[nH]c(C3CCC(I)C3)nc2n(CCC)c1=O` (stereo not drawn) [Compound 10], for which the “Conc. max. (nM): concentration” value in the data set with CFPAC cells is on record as >>300 nM. The Ki on A1-adenosine receptor (setting [2]) worked out at 0.058 µM.
Consider `Cn1c(=O)c2c(nc(C3CCCCCC3)n2C)n(C)c1=O` [Compound 24], for which the “Conc. max. (nM): concentration” value in the data set with CFPAC cells is given as >>10^4 nM. On A2a-adenosine receptor (A2a versus A1), the “A2a affinity (fold)” value was 6 fold. The Ki worked out at 3.27 ± 0.98 µM on A2a-adenosine receptor and 19.5 ± 2.5 µM on A1-adenosine receptor (setting [2]).
With `CCCn1c(=O)c2c(nc(C3CCCCC3)n2C)n(CCC)c1=O` [Compound 19, 1,3-dipropyl-7-methyl-8-cyclohexylxanthine], in the data set with CFPAC cells, the “Chloride efflux stimulation” value is on record as “stimulate chloride efflux at μM or lesser concentrations; also recorded: substantial efflux activity at low concentration ranges”, the “Conc. max. (nM): concentration” value is reported as 5 nM, the “thresh (nM)” value worked out at 5 nM and the “% control: chloride efflux at maximum impact relative to control” value came to 170 ± 50%. In the data set on CFPAC cells, the “% control: chloride efflux at minimum detection relative to control” value is 170 ± 50%. In addition, on A2a-adenosine receptor, the Ki was found to be 9.24 ± 0.37 µM. The inhibition constant (Ki) at A1-adenosine receptor (setting [2]) was 2.7 µM.
For the compound `C=CCn1c(=O)c2[nH]c(C3CCCCC3)nc2n(CC=C)c1=O` [Compound 17], in the data set on CFPAC cells, the “Conc. max. (nM): concentration” value was 10^3 nM, the “thresh (nM)” value is on record as 30 nM and the “Efflux rate as compared to control (FIGS. 9-12)” value was above 100%. In addition, the inhibition constant (Ki) at A2a-adenosine receptor amounted to 4.94 ± 0.68 µM. In addition, the Ki at A1-adenosine receptor (read-out: Ki for A1 receptors (unit inferred)) was around 0.07 µM.
As to `Cn1c(=O)c2[nH]c(C3CCCCCC3)nc2n(C)c1=O` [Compound 23], the melting point lay within 223 to 225 °C. In addition, the “Conc. max. (nM): concentration” value in the data set on CFPAC cells was >>10^4 nM. For the same compound, the Ki on A2a-adenosine receptor came to 1.05 ± 0.19 µM. At A1-adenosine receptor (setting [2]), the inhibitory constant (Ki) came to 0.0659 ± 0.0145 µM.
Take `Cn1c(=O)c2c(nc(C=Cc3cccc(Cl)c3)n2C)n(C)c1=O` [Compound 25, reference compound]: in the data set on CFPAC cells, the “Chloride efflux stimulation” value is “stimulate chloride efflux at μM or lesser concentrations”, the “Conc. max. (nM): concentration” value was determined as 30 nM and the “thresh (nM)” value is reported as 30 nM.
For the compound `CCCn1c(=O)c2[nH]c(C3CCC(F)C3)nc2n(CCC)c1=O` (stereo not drawn) [Compound 9], the “Conc. max. (nM): concentration” value in the data set with CFPAC cells is on record as >>300 nM. At A1-adenosine receptor (setting [2]), the inhibition constant (Ki) is 0.042 µM.
Turning to `CCn1cnc2c(NC3CCCC3)ncnc21` [Compound 27, 9-ethyl-6-cyclopenyladenine, reference compound], in the data set on CFPAC cells, the “Conc. max. (nM): concentration” value is given as >>10^4 nM. Also, the figures for the Ki on A2a-adenosine receptor and at A1-adenosine receptor (setting [2]) were 17 µM and 0.44 µM, respectively.
With “Iβ: CFTR polypeptide, positions 509 to 539, NH2-GVSYDEYRYRSVIKACQLEEDISKFAEKDNI-COOH”, in data set [1], the “Aggregation of chromaffin granules” value was “essentially inactive”.
In turn, `Cn1c(=O)c2c(nc(C3CCCCC3)n2CC2CC2)n(C)c1=O` (hydrate or solvate) [Compound 16] showed a melting point above 120 °C.
In the case of “CFTR polypeptide, amino acid positions 477 to 508, NH2-PSEGKIKHSGRISFCSQFSWIMPGTIKENEEF-COOH [Iα]”, in data set [1], the “Aggregation of chromaffin granules” value was “drive aggregation”. Further, the “k1/2,app of chromaffin granule aggregation” value in data set [1] (1 mM CaCl2, pH 6.0) turned out to be 22.2 µg/mL. Besides, the EC50 in data set [1] (1 mM CaCl2, pH 6.0, read-out: k1/2,app of chromaffin granule aggregation) amounted to 6.3 µM.
